Results taken from patent US11739098B2 (BRISTOL-MYERS SQUIBB COMPANY, priority 2017, dated 2023).

Assays:
Assay type in all cases: cell-based
human TLR7 = molecular target: T1, human TLR7 (Homo sapiens, UniProt Q9NYK1); test: TLR7 inhibition reporter assay (HEK-Blue cells, SEAP reporter, gardiquimod stimulation); details: HEK-Blue cells overexpressing human TLR7, SEAP reporter, gardiquimod 7.5 μM
T1 construct: host or cells: HEK-Blue cells (HEK293-derived reporter line)
T1 sequence (Q9NYK1 27-1049): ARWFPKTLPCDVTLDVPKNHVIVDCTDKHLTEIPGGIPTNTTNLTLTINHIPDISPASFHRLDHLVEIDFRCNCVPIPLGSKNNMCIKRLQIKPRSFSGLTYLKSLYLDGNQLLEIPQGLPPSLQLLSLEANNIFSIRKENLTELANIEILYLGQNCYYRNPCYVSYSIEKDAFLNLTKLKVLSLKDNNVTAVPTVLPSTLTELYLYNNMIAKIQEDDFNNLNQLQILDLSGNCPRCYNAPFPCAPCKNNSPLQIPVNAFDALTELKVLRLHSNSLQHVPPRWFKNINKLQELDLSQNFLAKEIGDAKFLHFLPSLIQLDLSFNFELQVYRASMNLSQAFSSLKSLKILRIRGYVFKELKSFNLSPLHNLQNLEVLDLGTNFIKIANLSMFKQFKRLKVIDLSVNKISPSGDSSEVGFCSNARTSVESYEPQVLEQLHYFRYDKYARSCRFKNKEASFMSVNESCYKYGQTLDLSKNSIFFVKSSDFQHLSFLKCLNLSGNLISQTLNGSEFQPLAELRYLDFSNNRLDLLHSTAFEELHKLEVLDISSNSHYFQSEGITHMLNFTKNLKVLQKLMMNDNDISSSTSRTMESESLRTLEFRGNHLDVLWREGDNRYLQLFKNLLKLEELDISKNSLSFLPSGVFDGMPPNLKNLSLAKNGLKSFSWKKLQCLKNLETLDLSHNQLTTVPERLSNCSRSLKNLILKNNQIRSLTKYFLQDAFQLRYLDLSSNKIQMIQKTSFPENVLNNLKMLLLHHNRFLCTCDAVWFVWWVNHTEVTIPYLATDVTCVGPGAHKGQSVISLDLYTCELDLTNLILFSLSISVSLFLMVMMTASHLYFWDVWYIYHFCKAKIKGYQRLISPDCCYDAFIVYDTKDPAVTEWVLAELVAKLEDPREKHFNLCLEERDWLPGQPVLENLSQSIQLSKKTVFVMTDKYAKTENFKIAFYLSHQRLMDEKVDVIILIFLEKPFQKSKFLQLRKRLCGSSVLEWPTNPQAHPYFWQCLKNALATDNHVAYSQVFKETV
How it was run: (§1)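 After 22 h at 37 °C, SEAP secretion was measured from human TLR7-, TLR8- or TLR9-expressing HEK-Blue reporter cells given compound (0.05 nM–50 μM) 30 min before agonist: 7.5 μM gardiquimod, 15.9 μM R848 or 5 nM ODN2006 respectively. Percent inhibition referenced to agonist-plus-DMSO and known-inhibitor wells.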

human TLR8 = molecular target: T2, human TLR8 (Homo sapiens, UniProt Q9NR97); test: TLR8 inhibition reporter assay (HEK-Blue cells, SEAP reporter, R848 stimulation); details: HEK-Blue cells overexpressing human TLR8, SEAP reporter, R848 15.9 μM
T2 construct: host or cells: HEK-Blue cells (HEK293-derived reporter line)
T2 sequence (Q9NR97 27-1041): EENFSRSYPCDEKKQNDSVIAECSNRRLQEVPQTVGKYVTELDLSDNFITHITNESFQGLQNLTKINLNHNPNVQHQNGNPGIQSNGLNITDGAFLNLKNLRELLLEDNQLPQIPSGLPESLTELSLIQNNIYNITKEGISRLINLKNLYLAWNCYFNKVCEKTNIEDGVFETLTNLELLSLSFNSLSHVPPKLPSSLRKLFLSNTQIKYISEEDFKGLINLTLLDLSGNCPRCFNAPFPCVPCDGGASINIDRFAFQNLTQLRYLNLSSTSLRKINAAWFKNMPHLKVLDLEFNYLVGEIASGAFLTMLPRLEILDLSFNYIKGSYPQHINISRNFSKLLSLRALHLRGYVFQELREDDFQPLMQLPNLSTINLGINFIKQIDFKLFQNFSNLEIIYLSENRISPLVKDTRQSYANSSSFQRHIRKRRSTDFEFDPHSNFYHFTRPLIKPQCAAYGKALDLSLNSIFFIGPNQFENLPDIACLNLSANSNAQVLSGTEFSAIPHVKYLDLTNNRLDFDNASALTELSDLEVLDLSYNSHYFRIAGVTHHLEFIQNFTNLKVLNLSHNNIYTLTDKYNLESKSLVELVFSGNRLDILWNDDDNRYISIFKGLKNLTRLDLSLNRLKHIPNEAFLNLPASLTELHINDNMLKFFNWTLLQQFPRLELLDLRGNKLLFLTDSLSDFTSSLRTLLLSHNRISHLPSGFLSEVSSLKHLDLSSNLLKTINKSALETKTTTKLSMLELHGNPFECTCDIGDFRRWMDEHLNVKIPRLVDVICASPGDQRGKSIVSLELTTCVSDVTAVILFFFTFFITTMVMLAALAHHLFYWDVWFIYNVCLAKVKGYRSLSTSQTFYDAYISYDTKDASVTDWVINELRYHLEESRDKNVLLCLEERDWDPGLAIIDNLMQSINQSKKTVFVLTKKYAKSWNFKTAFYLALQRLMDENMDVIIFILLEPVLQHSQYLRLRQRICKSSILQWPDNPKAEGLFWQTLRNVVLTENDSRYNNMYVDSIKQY
How it was run: as §1

human TLR9 = molecular target: T3, human TLR9 (Homo sapiens, UniProt Q9NR96); test: TLR9 inhibition reporter assay (HEK-Blue cells, SEAP reporter, ODN2006 stimulation); details: HEK-Blue cells overexpressing human TLR9, SEAP reporter, ODN2006 5 nM
T3 construct: host or cells: HEK-Blue cells (HEK293-derived reporter line)
T3 sequence (Q9NR96 26-1032): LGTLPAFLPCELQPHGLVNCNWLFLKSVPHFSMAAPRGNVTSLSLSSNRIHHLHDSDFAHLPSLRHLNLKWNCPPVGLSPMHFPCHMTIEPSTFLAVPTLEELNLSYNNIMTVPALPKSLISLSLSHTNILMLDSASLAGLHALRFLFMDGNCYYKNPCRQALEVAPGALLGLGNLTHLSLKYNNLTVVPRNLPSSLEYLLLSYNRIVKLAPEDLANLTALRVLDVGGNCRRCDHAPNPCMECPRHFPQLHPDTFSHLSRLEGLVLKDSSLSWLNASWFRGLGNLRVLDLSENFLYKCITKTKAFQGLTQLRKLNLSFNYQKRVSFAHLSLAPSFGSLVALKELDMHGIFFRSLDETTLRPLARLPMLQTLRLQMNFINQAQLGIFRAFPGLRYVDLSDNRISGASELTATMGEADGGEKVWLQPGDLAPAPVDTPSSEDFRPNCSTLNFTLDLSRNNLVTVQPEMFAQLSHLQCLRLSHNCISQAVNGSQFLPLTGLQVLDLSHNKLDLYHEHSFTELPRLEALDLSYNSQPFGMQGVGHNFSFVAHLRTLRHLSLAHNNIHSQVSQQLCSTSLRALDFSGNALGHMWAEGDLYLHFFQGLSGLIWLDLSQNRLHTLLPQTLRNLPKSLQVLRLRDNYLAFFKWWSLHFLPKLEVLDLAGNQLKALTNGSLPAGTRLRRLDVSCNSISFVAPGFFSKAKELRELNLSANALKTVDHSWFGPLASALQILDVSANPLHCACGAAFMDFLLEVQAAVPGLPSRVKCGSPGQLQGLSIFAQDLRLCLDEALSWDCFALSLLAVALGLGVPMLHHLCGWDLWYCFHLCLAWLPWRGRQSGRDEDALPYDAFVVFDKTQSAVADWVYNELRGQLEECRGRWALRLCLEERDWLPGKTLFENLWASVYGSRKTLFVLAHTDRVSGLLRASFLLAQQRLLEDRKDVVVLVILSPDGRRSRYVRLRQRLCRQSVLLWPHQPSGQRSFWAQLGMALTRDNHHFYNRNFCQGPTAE
How it was run: as §1

IC50 (human TLR7) | IC50 (human TLR8) | IC50 (human TLR9) | SMILES
1 to 50 µM | 0.1 to 1 µM | 0.1 to 1 µM | COCC(CO)N1CCC(c2ccc3[nH]c(-c4cc(C)n5ccnc5c4)c(C(C)C)c3c2)CC1 (stereo not drawn) [Example 754, 2-(4-(3-isopropyl-2-(5-methylimidazo[1,2-a]pyridin-7-yl)-1H-indol-5-yl)piperidin-1-yl)-3-methoxypropan-1-ol]
< 0.1 µM | 0.1 to 1 µM | 1 to 50 µM | Cc1cc(-c2[nH]c3ccc(C4CCN(C5COC5)CC4)cc3c2C(C)C)cc2cccnc12 [Example 723, 6-(3-isopropyl-5-(1-(oxetan-3-yl)piperidin-4-yl)-1H-indol-2-yl)-8-methylquinoline]
< 0.1 µM | < 0.1 µM | 0.1 to 1 µM | CC(C)c1c(-c2ccc3[nH]c(=O)oc3c2)[nH]c2ccc(C3CCNCC3)cc12 [Example 10, 6-(3-isopropyl-5-(piperidin-4-yl)-1H-indol-2-yl)benzo[d]oxazol-2(3H)-one]
1 to 50 µM | > 3.13 µM | 0.1 to 1 µM | CNCCN1CCC(c2ccc3[nH]c(-c4cncc5ccccc45)c(C)c3c2)CC1 [Example 663, 2-(4-(2-(isoquinolin-4-yl)-3-methyl-1H-indol-5-yl)piperidin-1-yl)-N-methylethan-1-amine]
< 0.1 µM | < 0.1 µM | 1 to 50 µM | Cc1cc(-c2[nH]c3ccc(C4CCN(C(=O)CN(C)C)CC4)cc3c2C(C)C)cc2cnnn12 [Example 488, 2-(dimethylamino)-1-(4-(3-isopropyl-2-(7-methyl-[1,2,3]triazolo[1,5-a]pyridin-5-yl)-1H-indol-5-yl)piperidin-1-yl)ethan-1-one]
< 0.1 µM | < 0.1 µM | 1 to 50 µM | Cc1c(-c2[nH]c3ccc(C4CCNCC4)cc3c2C(C)C)cn2nnnc2c1C [Example 73, 6-(3-isopropyl-5-(piperidin-4-yl)-1H-indol-2-yl)-7,8-dimethyltetrazolo[1,5-a]pyridine]
> 3.13 µM | > 3.13 µM | 1 to 50 µM | CC(C)c1c(-c2coc3cccnc23)[nH]c2ccc(C3CCNCC3)cc12 [Example 20, 3-(3-isopropyl-5-(piperidin-4-yl)-1H-indol-2-yl)furo[3,2-b] pyridine]
0.1 to 1 µM | 0.1 to 1 µM | 0.1 to 1 µM | COc1cc(-c2[nH]c3ccc(C4CCN(CC(=O)N(C)C)CC4)cc3c2C(C)C)cc2nccn12 [Example 357, 2-(4-(3-isopropyl-2-(5-methoxyimidazo[1,2-a]pyridin-7-yl)-1H-indol-5-yl)piperidin-1-yl)-N,N-dimethylacetamide]
0.1 to 1 µM | 1 to 50 µM | 1 to 50 µM | CC(C)c1c(-c2ccc3[nH]cnc3c2)[nH]c2ccc(C3CCNCC3)cc12 [Example 50, 5-(3-isopropyl-5-(piperidin-4-yl)-1H-indol-2-yl)-1H-benzo[d]imidazole]
< 0.1 µM | < 0.1 µM | 1 to 50 µM | Cc1cc(-c2[nH]c3ccc(C4CCN(CC(N)=O)CC4)cc3c2C(C)C)cc2cnnn12 [Example 321, 2-(4-(3-isopropyl-2-(7-methyl-[1,2,3]triazolo[1,5-a]pyridin-5-yl)-1H-indol-5-yl)piperidin-1-yl)acetamide]
0.1 to 1 µM | 0.1 to 1 µM | 1 to 50 µM | CC(C)c1c(-c2ccnc3[nH]ncc23)[nH]c2ccc(C3CCN(Cc4nccc5ccccc45)CC3)cc12 [Example 910, 1-((4-(3-isopropyl-2-(1H-pyrazolo[3,4-b]pyridin-4-yl)-1H-indol-5-yl)piperidin-1-yl)methyl)isoquinoline]
< 0.1 µM | < 0.1 µM | 1 to 50 µM | CC(C)c1c(-c2cc(Cl)c3ncccc3c2)[nH]c2ccc(C3CCN(CC(=O)N(C)C)CC3)cc12 [Example 380, 2-(4-(2-(8-chloroquinolin-6-yl)-3-isopropyl-1H-indol-5-yl)piperidin-1-yl)-N,N-dimethylacetamide]
< 0.1 µM | < 0.1 µM | 0.1 to 1 µM | CC(C)c1c(-c2ccnc3[nH]ncc23)[nH]c2ccc(C3CCN(CC(C)(C)CN(C)C)CC3)cc12 [Example 847, 3-(4-(3-isopropyl-2-(1H-pyrazolo[3,4-b]pyridin-4-yl)-1H-indol-5-yl)piperidin-1-yl)-N,N,2,2-tetramethylpropan-1-amine]
< 0.1 µM | 0.1 to 1 µM | 1 to 50 µM | Cc1nc2cc(-c3[nH]c4ccc(C5CCN(CC(=O)N(C)C)CC5)cc4c3C(C)C)cc(C)c2o1 [Example 338, 2-(4-(2-(2,7-dimethylbenzo [d]oxazol-5-yl)-3-isopropyl-1H-indol-5-yl)piperidin-1-yl)-N,N-dimethylacetamide]
0.1 to 1 µM | 0.1 to 1 µM | 0.1 to 1 µM | CC(C)c1c(-c2ncnn3cccc23)[nH]c2ccc(C3CCN(CC(=O)N(C)C)CC3)cc12 [Example 424, 2-(4-(3-isopropyl-2-(pyrrolo[2,1-f][1,2,4]triazin-4-yl)-1H-indol-5-yl)piperidin-1-yl)-N,N-dimethylacetamide]
